# Target: T1, TRPM8 (Rattus norvegicus, UniProt Q8R455)
# T1 construct: from tissue; host or cells: whole animal, female SD rats (in vivo)
# Experiment: Confirmation test of inhibitory effects on icilin-induced wet-dog shakes
# Assay type: in vivo
# Conditions: female SD rats, oral dose 0.3 mg/kg, icilin 1 mg/kg i.p. 1 hour after dosing, shakes counted for 5 minutes
# Description: Further, TRPM8 inhibitory activity can be evaluated by the efficacy inhibiting the wet-dog shake action which is induced by the administration of Icilin, TRPM8 agonist. Furthermore, an effect on overactive bladder (OAB) can be evaluated by an elongation of micturition interval against overactive bladder induced by acetic acid in accordance with a similar method described in J. Urol., 2001, 166, 1142.
# Confirmation Test of Inhibitory Effects on Icilin-induced Wet-dog Shakes
# Test compounds were dissolved in dimethylacetamide (wako), and 0.5% methylcellulose solution (wako) was added to make the solution or suspension containing 5% of dimethylacetatnide. At a dose of 0.3 to 10 mg/kg/5mL of test compounds were orally administered to female SD rats. After 1 hour, wet-dog shakes were induced by the intraperitoneal injection of icilin (1 mg/kg) which was dissolved in polyethylene glycol 400 (wako). From 5 minutes after the administration of icilin, wet-dog shakes were counted for 5 minutes. For control example, vehicle (a mixture of dimethylacetamide (wako): 0.5% methylcellulose (wako)=5:95) was administrated similarly, and the number of wet-dog shakes was counted in the same manner. A percent inhibition of wet-dog shakes by test compound was calculated from the following formula: [1-(test compound wet-dog shake count/vehicle wet-dog shake count)]×100.
# T1 sequence (Q8R455 whole entry): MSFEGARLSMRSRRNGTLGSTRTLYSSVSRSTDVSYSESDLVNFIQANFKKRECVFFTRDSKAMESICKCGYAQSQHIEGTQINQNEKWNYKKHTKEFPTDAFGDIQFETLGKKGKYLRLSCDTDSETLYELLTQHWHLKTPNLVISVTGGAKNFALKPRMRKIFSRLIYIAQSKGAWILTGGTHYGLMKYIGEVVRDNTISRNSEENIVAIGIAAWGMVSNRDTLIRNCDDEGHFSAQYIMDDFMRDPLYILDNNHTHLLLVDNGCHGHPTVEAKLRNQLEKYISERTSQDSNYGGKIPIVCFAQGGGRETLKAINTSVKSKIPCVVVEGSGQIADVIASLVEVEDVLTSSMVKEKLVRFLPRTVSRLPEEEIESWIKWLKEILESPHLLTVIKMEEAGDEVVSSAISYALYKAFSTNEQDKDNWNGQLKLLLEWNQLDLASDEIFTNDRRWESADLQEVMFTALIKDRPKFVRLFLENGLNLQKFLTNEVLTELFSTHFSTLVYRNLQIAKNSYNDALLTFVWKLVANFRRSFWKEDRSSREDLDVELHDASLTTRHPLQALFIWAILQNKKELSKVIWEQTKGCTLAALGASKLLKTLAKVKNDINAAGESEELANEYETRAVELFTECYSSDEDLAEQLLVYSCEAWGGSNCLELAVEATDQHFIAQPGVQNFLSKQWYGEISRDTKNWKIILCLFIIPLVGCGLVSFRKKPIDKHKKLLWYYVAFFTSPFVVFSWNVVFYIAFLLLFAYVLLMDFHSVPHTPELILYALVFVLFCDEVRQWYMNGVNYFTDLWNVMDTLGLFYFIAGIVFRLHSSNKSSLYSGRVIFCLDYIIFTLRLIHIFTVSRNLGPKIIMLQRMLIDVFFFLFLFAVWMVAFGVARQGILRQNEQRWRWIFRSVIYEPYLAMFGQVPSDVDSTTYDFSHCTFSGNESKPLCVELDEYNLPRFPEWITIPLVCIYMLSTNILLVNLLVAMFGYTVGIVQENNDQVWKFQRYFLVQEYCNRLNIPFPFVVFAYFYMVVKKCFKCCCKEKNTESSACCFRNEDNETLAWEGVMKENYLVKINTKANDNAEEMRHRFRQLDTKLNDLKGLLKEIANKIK
row,SMILES,% inhibition of Wet-Dog Shake [%]
1,CO[C@H](CO)[C@@H](Cc1ncccc1F)NC(=O)c1cccc(F)c1-c1cc(-c2ccc(F)cc2)[nH]n1 [Example 27-20],56
2,CO[C@H](CO)[C@@H](Cn1nccn1)NC(=O)c1cccc(F)c1-c1n[nH]c(-c2ccc(F)cc2)c1F [Example 27-30],62
3,CO[C@H](CO)[C@@H](Cc1ccccn1)NC(=O)c1ccccc1-c1n[nH]c(-c2ccc(F)cc2)c1F [Example 43-5],98
4,CO[C@H](CO)[C@@H](Cc1ccccn1)NC(=O)c1ccccc1-c1cc(-c2ccc(F)cc2)[nH]n1 [Example 43-13],90
5,O=C(N[C@H](Cc1ncccc1F)[C@H](F)CO)c1cccc(F)c1-c1cc(-c2ccc(F)cc2)[nH]n1 [Example 43-41],54

# Same assay, conditions: female SD rats, oral dose 1 mg/kg, icilin 1 mg/kg i.p. 1 hour after dosing, shakes counted for 5 minutes
row,SMILES,% inhibition of Wet-Dog Shake [%]
1,CO[C@H](CO)[C@@H](Cc1cscn1)NC(=O)c1cccc(F)c1-c1cc(-c2ccc(F)cc2)[nH]n1 [Example 27-21],32
2,CO[C@H](CO)[C@@H](Cn1nccn1)NC(=O)c1cccc(F)c1-c1cc(-c2ccc(F)cc2)[nH]n1 [Example 27-22],100
3,"O=C(N[C@@H](CCO)Cc1ccccn1)c1cccc(F)c1-c1n[nH]c(-c2ccc(F)cc2)c1F [Example 28-1, 3-Fluoro-2-[4-fluoro-5-(4-fluorophenyl)-1H-pyrazol-3-yl]-N-[(2R)-4-hydroxy-1-(pyridin-2-yl)butan-2-yl]benzamide]",62
4,CC(C)(O)[C@@H](Cc1ccccn1)NC(=O)c1cccc(F)c1-c1n[nH]c(-c2ccc(F)cc2)c1F [Example 33-2],88
5,CO[C@H](CO)[C@@H](Cc1ccccn1)NC(=O)c1cccc(F)c1-c1n[nH]c(-c2ccc(F)cc2)c1F [Example 43-14],100
6,CCO[C@H](CO)[C@@H](Cc1ccccn1)NC(=O)c1cccc(F)c1-c1cc(-c2ccc(F)cc2)[nH]n1 [Example 43-15],73
7,CO[C@H](CO)[C@@H](Cc1ccccn1)NC(=O)c1ccccc1-c1n[nH]c(-c2ccc(Cl)cc2)c1F [Example 43-18],85
8,O=C(N[C@H](Cc1ccccn1)[C@@H](F)CO)c1cccc(F)c1-c1cc(-c2ccc(F)cc2)[nH]n1 [Example 43-23],100
9,O=C(N[C@H](Cc1ccccn1)[C@H](F)CO)c1cccc(F)c1-c1cc(-c2ccc(F)cc2)[nH]n1 [Example 43-24],100
10,O=C(N[C@H](Cc1ncccn1)[C@H](F)CO)c1cccc(F)c1-c1cc(-c2ccc(F)cc2)[nH]n1 [Example 43-29],79
11,O=C(N[C@H](Cn1cccn1)[C@H](F)CO)c1cccc(F)c1-c1n[nH]c(-c2ccc(F)cc2)c1F [Example 43-39],81
12,O=C(N[C@H](Cc1ccccn1)C(F)(F)CO)c1cccc(F)c1-c1cc(-c2ccc(F)cc2)[nH]n1 [Example 50-5],100

# Same assay, conditions: female SD rats, oral dose 3 mg/kg, icilin 1 mg/kg i.p. 1 hour after dosing, shakes counted for 5 minutes
row,SMILES,% inhibition of Wet-Dog Shake [%]
1,CO[C@@H](CO)[C@@H](Cn1cccn1)NC(=O)c1cccc(F)c1-c1n[nH]c(-c2ccc(F)cc2)c1F [Example 27-24],99
2,CO[C@H](CO)[C@@H](Cn1cc(Cl)cn1)NC(=O)c1cccc(F)c1-c1cc(-c2ccc(F)cc2)[nH]n1 [Example 27-29],47
3,"O=C(N[C@H](Cc1ncccn1)[C@@H](O)CO)c1cccc(F)c1-c1cc(-c2ccc(F)cc2)[nH]n1 [Example 31-1, N-[(2R,3R)-3,4-Dihydroxy-1-(pyrimidin-2-yl)butan-2-yl]-3-fluoro-2-[5-(4-fluorophenyl)-1H-pyrazol-3-yl]benzamide]",36
4,"CC(C)(O)[C@@H](Cc1ccccn1)NC(=O)c1cccc(F)c1-c1cc(-c2ccc(F)cc2)[nH]n1 [Example 33-1, 3-Fluoro-2-[-5-(4-fluorophenyl)-1H-pyrazol-3-yl]-N-[(2R)-3-hydroxy-3-methyl-1-(pyridin-2-yl)butan-2-yl]benzamide]",100
5,CC(C)(O)[C@@H](Cc1ccccn1)NC(=O)c1cccc(Cl)c1-c1cc(-c2ccc(F)cc2)[nH]n1 [Example 33-3],32
6,"CC(C)(O)[C@@H](Cc1ccccn1)NC(=O)c1cccc(F)c1-c1cc(-c2ccc(Cl)cc2)[nH]n1 [Example 34-1HP, 2-[-5-(4-Chlorophenyl)-1H-pyrazol-3-yl]-3-fluoro-N-[(2R)-3-hydroxy-3-methyl-1-(pyridin-2-yl)butan-2-yl]benzamide]",92
7,"CC(CO)(CO)[C@@H](Cc1ccccn1)NC(=O)c1cccc(F)c1-c1cc(-c2ccc(Cl)cc2)[nH]n1 [Example 35-1, 2-[5-(4-Chlorophenyl)-1H-pyrazol-3-yl]-3-fluoro-N-[(2R)-4-hydroxy-3-(hydroxymethyl)-3-methyl-1-(pyridin-2-yl)butan-2-yl]benzamide]",42
8,O=C(N[C@H](Cc1ccccn1)C(CO)CO)c1cccc(F)c1-c1cc(-c2ccc(F)cc2)[nH]n1 [Example 35-3],69
9,"O=C(N[C@@H](CCO)Cc1ccccn1)c1cccc(Cl)c1-c1cc(-c2ccc(F)cc2)[nH]n1 [Example 36-1, 3-Chloro-2-[5-(4-fluorophenyl)-1H-pyrazol-3-yl]-N-[(2R)-4-hydroxy-1-(pyridin-2-yl)butan-2-yl]benzamide]",39
10,C[C@@](CO)(Cc1ccccn1)NC(=O)c1cccc(F)c1-c1cc(-c2ccc(F)cc2)[nH]n1 [Example 36-2],72
11,"NC(=O)[C@@H](Cc1ccccn1)NC(=O)c1cccc(F)c1-c1cc(-c2ccc(F)cc2)[nH]n1 [Example 37-1, (2R)-2-{3-Fluoro-2-[-5-(4-fluorophenyl)-1H-pyrazol-3-yl]benzoylamino}-3-(pyridin-2-yl)propanamide]",38
12,O=C(N[C@@H](CO)Cc1ncccc1Cl)c1cccc(F)c1-c1cc(-c2ccc(F)cc2)[nH]n1 [Example 39-2],50
13,CO[C@@H](CO)[C@@H](Cc1ccccn1)NC(=O)c1cccc(F)c1-c1cc(-c2ccc(F)cc2)[nH]n1 [Example 43-2],100
14,CO[C@H](CO)[C@@H](Cc1ccccn1)NC(=O)c1cccc(Cl)c1-c1cc(-c2ccc(F)cc2)[nH]n1 [Example 43-4],77
15,COC(c1ccccn1)[C@H](CO)NC(=O)c1cccc(F)c1-c1cc(-c2ccc(F)cc2)[nH]n1 (stereo partly drawn) [Example 43-6],49
16,COC(c1ccccn1)[C@H](CCO)NC(=O)c1cccc(F)c1-c1cc(-c2ccc(F)cc2)[nH]n1 (stereo partly drawn) [Example 43-9],89

row,SMILES,% inhibition of Wet-Dog Shake [%]
1,COC(c1ccccn1)[C@H](CO)NC(=O)c1cccc(F)c1-c1cc(-c2ccc(F)cc2)[nH]n1 (stereo partly drawn) [Example 43-11],88
2,COC(c1ccccn1)[C@H](CO)NC(=O)c1cccc(Cl)c1-c1cc(-c2ccc(F)cc2)[nH]n1 (stereo partly drawn) [Example 43-12],92
3,COC(c1ccccn1)[C@H](CO)NC(=O)c1cccc(F)c1-c1n[nH]c(-c2ccc(F)cc2)c1F (stereo partly drawn) [Example 43-16],97
4,COC(c1ccccn1)[C@H](CO)NC(=O)c1ccccc1-c1n[nH]c(-c2ccc(F)cc2)c1F (stereo partly drawn) [Example 43-17],78
5,CCOC(c1ccccn1)[C@H](CO)NC(=O)c1cccc(F)c1-c1cc(-c2ccc(F)cc2)[nH]n1 (stereo partly drawn) [Example 43-22],98
6,O=C(N[C@@H](Cc1ccccn1)[C@H](F)CO)c1cccc(F)c1-c1cc(-c2ccc(F)cc2)[nH]n1 [Example 43-25],100
7,CO[C@H](CO)[C@@H](Cc1ccccn1)NC(=O)c1cccc(F)c1-c1cc(-c2ccc(F)cc2F)[nH]n1 [Example 43-34],100
8,CO[C@H](CO)[C@@H](Cc1ccccn1)NC(=O)c1cccc(F)c1-c1n[nH]c(-c2ccc(F)cc2)c1Cl [Example 43-36],31
9,O=C(N[C@H](Cn1cccn1)[C@H](F)CO)c1cccc(F)c1-c1cc(-c2ccc(Cl)cc2)[nH]n1 [Example 43-44],69
10,O=C(N[C@H](Cn1cccn1)[C@H](F)CO)c1cccc(Cl)c1-c1cc(-c2ccc(F)cc2)[nH]n1 [Example 43-45],40
11,O=C(N[C@H](Cn1cccn1)[C@H](F)CO)c1cccc(F)c1-c1cc(-c2ccc(F)cc2F)[nH]n1 [Example 43-46],70
12,"O=C1N[C@@H]([C@@H](Cc2ccccn2)NC(=O)c2cccc(F)c2-c2cc(-c3ccc(F)cc3)[nH]n2)CO1 [Example 47-1, 3-Fluoro-2-[5-(4-fluorophenyl)-1H-pyrazol-3-yl]-N-[(1R)-1-((4S)-2-oxo-1,3-oxazolidin-4-yl)-2-(pyridin-2-yl)ethyl]benzamide]",48
13,O=C1OC[C@H]([C@@H](Cc2ccccn2)NC(=O)c2cccc(F)c2-c2cc(-c3ccc(F)cc3)[nH]n2)O1 [Example 47-2],78
14,O=C(N[C@H](Cc1ncccn1)[C@@H](O)CF)c1cccc(F)c1-c1cc(-c2ccc(F)cc2)[nH]n1 [Example 50-2],89
15,O=C(N[C@H](Cc1ncccn1)C(F)(F)CO)c1cccc(F)c1-c1cc(-c2ccc(F)cc2)[nH]n1 [Example 50-4],100

# Source: US10287251B2, “Pyrazole derivative or pharmaceutically acceptable salt thereof” (KISSEI PHARMACEUTICAL CO., LTD., priority 2015, dated 2019)
